{"source": "patent US20180078916A1", "about": "“LIGNIN-BASED SURFACTANTS” (CARNEGIE MELLON UNIVERSITY, priority 2015, published 2018)", "system": "corn plants", "experiment": "clethodim application to corn plants with tank-mix adjuvants, % inhibition versus untreated control plants", "type": "in vivo", "conditions": "clethodim 1 fluid ounce/acre without tank-mix adjuvants, 7 days following treatment", "text": "Various surfactants are used as adjuvants for agrochemicals to enhance deposition and penetration through plant surfaces. Two commercial tank-mix adjuvant systems that may be used for comparison are PRIME OIL® and SUPERB® HC (available from Winfield Solutions, LLC of Shoreview, Minn.), which are high surfactant oil concentrates. Representative studied were based on delivery of clethodim at 1 fluid ounce/acre, a commercial herbicide that inhibits growth of certain plants. A measure of effectiveness was the % inhibition (with 0% being no inhibition) compared to untreated control plants. Photographs (a)-(e) of FIG. 11 provide images of corn plants (corn being a common contaminant crop in soybean fields) treated with different formulations 7 days after treatment. Comparatively good results are obtained with clethodim and KLPEG900. Lignin adjuvant activity appeared to be higher at 0.05% v/v that 0.1% v/v.\nFIG. 12 illustrates a graph wherein % inhibition is plotted for the different formulations 7 days following treatment."}
{"smiles": "CCSC(C)CC1CC(=O)C(/C(CC)=N/OC/C=C/Cl)=C(O)C1", "note": "(stereo not shown) [Clethodim, clethodim]", "values": [{"measurement": "% inhibition", "result": 54.4, "unit": "%"}]}
